Laboratory results published in patent US10662194B2, “Substituted 6-anilino-9-heterocyclylpurine derivatives for inhibition of plant stress” (UNIVERZITA PALACKEHO V OLOMOUCI, priority 2014, dated 2020).
Like-named read-outs stand apart in the source and are kept apart here.

Experiments:
[1] = tested on: CKX1 overproducing (35S:CKX1) Arabidopsis seedlings; assay: In vitro shoot and root growth of cytokinin deficient Arabidopsis plants; format: in vivo; conditions: for complementation of wild type shoot phenotype: 0.1 μM in MS medium, FIG. 3, 4
From the text: Constitutive overexpression of CKX in 35S:CKX1 plants leads to enhanced root growth. If CKX inhibitor can restore WT phenotype, it is expected that inhibition of the CKX activity in 35S:AtCKX1 plants should thus have no effect or inhibit their root growth. Such observation was done in case of INCYDE, but not compound 12.

[2] = tested on: wild-type Arabidopsis plants; assay: In vitro root growth of wild-type Arabidopsis plants; format: in vivo; conditions: 0.1 μM in MS medium, FIG. 6
Description: As shown in previous example presence of compound 12 in the growth medium has positive effect on the root growth of cytokinin-deficient Arabidopsis plants. This effect was further studied using wild-type Arabidopsis plants and compared with biologically and structurally relevant compounds, a cytokinin BAP and a CKX inhibitor INCYDE. […] Arabidopsis seedlings were grown in vitro on a standard MS medium containing 0.1 μM cytokinin BAP, the same concentration of compound 12 and the same concentration of CKX inhibitor INCYDE (2-chloro-6-(3-methoxyanilino)purine).

recombinant AtCKX2 = molecular target: T1, recombinant AtCKX2 (Arabidopsis thaliana, UniProt Q9FUJ3); assay: Inhibition of cytokinin oxidase/dehydrogenase activity (PMS/MTT microtitre assay); format: biochemical
T1 construct: made in house; host or cells: S. cerevisiae strain 23344c ura-
T1 sequence (Q9FUJ3 23-501): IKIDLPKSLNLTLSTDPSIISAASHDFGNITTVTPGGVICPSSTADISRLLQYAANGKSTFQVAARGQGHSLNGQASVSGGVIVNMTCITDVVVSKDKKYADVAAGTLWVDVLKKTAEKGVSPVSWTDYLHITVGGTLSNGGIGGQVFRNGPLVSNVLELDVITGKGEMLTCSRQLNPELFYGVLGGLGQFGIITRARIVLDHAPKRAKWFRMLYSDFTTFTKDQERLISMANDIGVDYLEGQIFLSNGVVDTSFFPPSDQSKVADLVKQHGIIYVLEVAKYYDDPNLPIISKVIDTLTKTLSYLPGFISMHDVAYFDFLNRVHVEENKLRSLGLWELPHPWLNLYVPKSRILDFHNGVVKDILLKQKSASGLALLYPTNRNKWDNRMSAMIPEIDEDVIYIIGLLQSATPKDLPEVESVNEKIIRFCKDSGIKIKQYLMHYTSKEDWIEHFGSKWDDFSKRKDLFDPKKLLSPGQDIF
Description: IC50 measurements were done using the assay in microtitre plate. Each well contained 100 μL of PMS/MTT [phenazine methosulfate/3-(4,5-dimethylthiazol-2-yl)-2,5-diphenyltetrazolium bromide] reaction mixture (final concentrations: 0.1 M KH2PO4, pH 7.4, 1 mM MTT, 0.2 mM PMS) containing the tested compound (3×10^−7 M-3×10^−4 M) and 30 μM N^6-isopentenyladenine (iP) as a substrate. 100 μL of cell-free growth medium of S. cerevisiae strain 23344c ura^− harboring the plasmid pYES2-AtCKX2 was directly used as a source of AtCKX2. Plates were incubated in the dark for 30 min at 37° C. and the enzymatic reaction was stopped by 25 μL of 35% acetic acid. The absorbance at 578 nm was measured using spectrophotometer Tecan. Absorbance of the sample without iP was subtracted.
The IC50 value, the compound concentration that inhibits the enzyme activity to 50%, was calculated from the obtained dose response curves. The values shown in Table 7 are means of three replicates and the entire test was repeated at least twice. […] Compound 12 is an effective inhibitor of AtCKX2 activity, app. 3-times stronger that thidiazuron and only app. 3-times weaker than the structurally related compound INCYDE (2-chloro-6-(3-methoxyanilino)purine).

AHK3 = molecular target: T2, AHK3 (Arabidopsis thaliana, UniProt Q9C5U1); assay: Escherichia coli cytokinin receptor activation assay (AHK3); format: cell-based; conditions: 10^−7 M-5×10^−5 M, compared to trans-zeatin, FIG. 1
T2 construct: expressed in transfected cells; host or cells: Escherichia coli strain KMI001
T2 sequence (Q9C5U1 1-1036): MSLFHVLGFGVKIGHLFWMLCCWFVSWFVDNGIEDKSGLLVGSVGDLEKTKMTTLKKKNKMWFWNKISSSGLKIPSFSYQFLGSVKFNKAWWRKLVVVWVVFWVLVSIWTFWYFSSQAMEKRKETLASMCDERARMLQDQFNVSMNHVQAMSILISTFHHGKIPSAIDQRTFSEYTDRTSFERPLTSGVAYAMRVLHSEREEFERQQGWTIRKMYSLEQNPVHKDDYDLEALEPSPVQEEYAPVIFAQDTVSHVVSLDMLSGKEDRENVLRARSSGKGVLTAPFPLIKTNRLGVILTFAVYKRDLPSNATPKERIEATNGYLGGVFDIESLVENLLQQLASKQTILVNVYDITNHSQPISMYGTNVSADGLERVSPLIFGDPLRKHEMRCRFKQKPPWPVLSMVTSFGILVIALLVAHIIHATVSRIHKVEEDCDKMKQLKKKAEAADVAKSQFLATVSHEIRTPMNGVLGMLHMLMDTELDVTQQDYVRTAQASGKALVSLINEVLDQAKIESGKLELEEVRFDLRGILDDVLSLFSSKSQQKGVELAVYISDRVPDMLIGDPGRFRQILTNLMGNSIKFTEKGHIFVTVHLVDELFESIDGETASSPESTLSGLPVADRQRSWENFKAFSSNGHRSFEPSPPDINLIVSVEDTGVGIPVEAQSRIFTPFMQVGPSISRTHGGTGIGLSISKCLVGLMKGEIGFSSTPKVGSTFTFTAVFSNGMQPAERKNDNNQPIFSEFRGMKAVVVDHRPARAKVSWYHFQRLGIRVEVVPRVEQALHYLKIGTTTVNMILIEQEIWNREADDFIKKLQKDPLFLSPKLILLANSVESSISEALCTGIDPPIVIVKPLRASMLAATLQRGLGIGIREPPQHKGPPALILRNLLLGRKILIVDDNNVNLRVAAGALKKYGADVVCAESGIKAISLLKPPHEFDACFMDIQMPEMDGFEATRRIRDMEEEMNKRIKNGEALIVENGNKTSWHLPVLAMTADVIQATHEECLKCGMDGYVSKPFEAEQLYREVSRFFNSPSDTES
Description: (§1) Escherichia coli strains KMI001 harbouring the plasmid pIN-III-AHK4 or pSTV28-AHK3 were grown overnight at 25° C. in M9 media enriched with 0.1% casamino acids to OD600˜1. The preculture was diluted 1:600 in 1 ml M9 medium containing 0.1% casamino acids and 1 μL stock solution of either the tested compound (10^−7 M-5×10^−5 M) or solvent control (DMSO, ethanol, methanol) were added. The cultures were further grown at 25° C. in microtiter plate, 200 μL per well. […] The cultures were centrifuged and 50 μL aliquots of the supernatant were transferred to microtiter plate containing 2 μL 50 mM 4-methyl umbelliferyl galactoside which was subsequently incubated for 1 h at 37° C. The reaction was stopped by adding 100 μL 0.2 M Na2CO3. Fluorescence was measured using a Fluoroscan Ascent (Labsystems, Finland) at the excitation and emission wavelengths of 365 and 460 nm, respectively. The OD600 of remaining culture was determined and β-galactosidase activity was calculated as nmol 4-methylumbelliferone×OD600^−1×h^−1.

ARR5:GUS reporter gene = assay: Induction of cytokinin reporter ARR5:GUS in transgenic Arabidopsis plants; format: in vivo; conditions: 0.01-10 μM, 17 h, FIG. 2
Description: Cytokinins induce in Arabidopsis transcription of gene ARR5, a member of A-type response regulator family classified as cytokinin primary response genes being expressed down-stream of sensing by cytokinin receptors. We cultivated transgenic Arabidopsis plants harbouring PARR5::GUS reporter (D'Agostino et al. Plant Physiol. 124: 1706-1717, 2000) in MS medium containing cytokinin BAP, CKX inhibitor INCYDE and novel compounds 12 and 91 in concentrations 0.01, 0.1, 1, 5, 10 μM; DMSO (0.1%) was tested as solvent control. Seeds were surface-sterilized in 70% ethanol and then placed into wells of 6-well microtiter plate (TPP, Switzerland) containing 3 mL of MS medium in each well. After sowing plates were pretreated in dark at 4° C. to synchronize the germination of the seeds. […] Quantitative estimation of the level of ARR5:GUS gene induction was done according to method published by Romanov et al. (Romanov et al. FEBS Letters 515: 39-43, 2002). After extraction of proteins the GUS activity was determined using incubation with fluorogenic substrate MUG (4-methylumbelliferyl glucuronid; 1 h, 37° C.) and then fluorescence 365 nm and 460 nm (excitation and emission wavelengths) was recorded, as described in detail by Spíchal et al. (Spíchal et al. Plant and Cell Physiology 45: 1299-1305, 2004).

CRE1/AHK4 = molecular target: T3, CRE1/AHK4 (Arabidopsis thaliana, UniProt Q9C5U0); assay: Escherichia coli cytokinin receptor activation assay (CRE1/AHK4); format: cell-based; conditions: 10^−7 M-5×10^−5 M, compared to trans-zeatin, FIG. 1
T3 construct: expressed in transfected cells; host or cells: Escherichia coli strain KMI001
T3 sequence (Q9C5U0 whole entry): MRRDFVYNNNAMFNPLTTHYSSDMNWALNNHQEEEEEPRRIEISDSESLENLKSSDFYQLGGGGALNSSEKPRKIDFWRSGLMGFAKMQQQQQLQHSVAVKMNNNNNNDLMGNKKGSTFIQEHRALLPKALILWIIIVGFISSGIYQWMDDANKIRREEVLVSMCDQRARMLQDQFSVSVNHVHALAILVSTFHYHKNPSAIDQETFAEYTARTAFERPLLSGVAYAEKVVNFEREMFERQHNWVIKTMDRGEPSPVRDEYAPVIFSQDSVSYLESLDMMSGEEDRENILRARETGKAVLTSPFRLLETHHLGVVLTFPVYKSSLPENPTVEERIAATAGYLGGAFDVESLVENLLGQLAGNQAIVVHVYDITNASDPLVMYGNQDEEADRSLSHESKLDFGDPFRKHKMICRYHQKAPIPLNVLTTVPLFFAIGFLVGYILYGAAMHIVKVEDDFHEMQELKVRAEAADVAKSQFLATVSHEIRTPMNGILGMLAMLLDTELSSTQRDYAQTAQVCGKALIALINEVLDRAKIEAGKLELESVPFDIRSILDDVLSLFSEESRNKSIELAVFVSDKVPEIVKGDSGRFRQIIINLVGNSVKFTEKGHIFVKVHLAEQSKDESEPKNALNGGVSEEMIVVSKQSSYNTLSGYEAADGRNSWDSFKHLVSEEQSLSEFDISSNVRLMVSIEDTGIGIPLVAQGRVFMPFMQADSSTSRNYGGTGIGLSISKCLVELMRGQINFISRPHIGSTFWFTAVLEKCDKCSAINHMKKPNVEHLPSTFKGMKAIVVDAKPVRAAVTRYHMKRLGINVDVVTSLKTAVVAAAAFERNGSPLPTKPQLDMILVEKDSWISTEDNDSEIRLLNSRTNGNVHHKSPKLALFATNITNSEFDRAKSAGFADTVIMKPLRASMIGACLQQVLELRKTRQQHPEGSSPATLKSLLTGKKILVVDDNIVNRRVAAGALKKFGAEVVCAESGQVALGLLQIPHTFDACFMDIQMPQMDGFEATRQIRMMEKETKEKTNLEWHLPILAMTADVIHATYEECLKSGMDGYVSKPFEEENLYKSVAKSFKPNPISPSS
Description: as §1

[3] = 30 μM iP substrate, 30 min, 37° C., read-out: IC50

Compound: c1ccc(CNc2ncnc3nc[nH]c23)cc1 [BAP, 6-benzylaminopurine]
- complementation of wild type shoot phenotype [1]: cannot be reached
- root growth [2]: inhibited root growth

Compound: COc1cccc(Nc2nc(Cl)nc3nc[nH]c23)c1 [INCYDE, 2-chloro-6-(3-methoxyanilino)purine]
- complementation of wild type shoot phenotype [1]: led to restauration of wild type shoot phenotype
- root biomass of 35S:CKX1 plants ([1]; tested concentration range, FIG. 5): did not influence the root biomass
- root growth [2]: inhibited root growth
- IC50 (recombinant AtCKX2; [3]): 6.7 µM

Compound: COc1cccc(Nc2nc(F)nc3[nH]cnc23)c1 [INCYDE-F, 2-fluoro-6-(3-methoxyanilino)purine, reference compound]
- IC50 (recombinant AtCKX2; [3]): 5.2 µM

Compound: COc1cccc(Nc2nc(F)nc3c2ncn3C2CCCCO2)c1 (stereo not drawn) [compound 91, 2-fluoro-6-(3-methoxyanilino)-9-(tetrahydropyran-2-yl)purine]
- ability to activate cytokinin receptor AHK3 (AHK3): do not activate any of the receptors
- induction of ARR5:GUS expression (ARR5:GUS reporter gene): dose-dependent induction of ARR5:GUS expression
- IC50 (recombinant AtCKX2; [3]): 380 µM
- ability to activate cytokinin receptor CRE1/AHK4 (CRE1/AHK4): do not activate any of the receptors

Compound: O=C(Nc1ccccc1)Nc1cnns1 [thidiazuron, reference compound]
- IC50 (recombinant AtCKX2): 55 µM
